Laboratory results reported in US8835125B2, “Methods and compositions for selective labeling of different biotinylated targets within multicolor or multilabel assays” (Affymetrix, Inc., priority 2011, dated 2014).

Key:
SAPE [1] = target: T1, SAPE (Streptomyces avidinii, UniProt P22629); assay: stability of DMT protected biotin against SAPE staining after 3 hour ligation (FIG. 13); conditions: array probes after 3 hours ligation reaction, no acid treatment
streptavidin = streptavidin (Streptomyces avidinii, UniProt P22629); conditions: association constant; cited from earlier work
streptavidin, sequence (P22629 25-183, species assumed): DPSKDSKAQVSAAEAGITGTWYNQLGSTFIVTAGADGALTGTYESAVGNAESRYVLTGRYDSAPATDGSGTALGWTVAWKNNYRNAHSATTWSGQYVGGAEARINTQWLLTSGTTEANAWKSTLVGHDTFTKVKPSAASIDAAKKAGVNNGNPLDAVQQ

SAPE [2] = target: T1, SAPE; assay: displacement of SAPE from desthiobiotin by biotin solution and re-staining (FIG. 15); format: binding; conditions: 1 mM biotin solution, then restaining with SAPE
Experimental: The next step was to displace the streptavidin-phycoerythrin conjugate bound to the desthiobiotin of the ligated A/T probes. This was done by washing the array with solution biotin (1 mM) in NaCl (150 mM) for 4 hours at room temperature. The displaced streptavidin-phycoerythrin conjugate previous bound to the desthiobiotinylated probes was then removed.
FIGS. 15(A)-15(C) contain images of sub-regions with sets of probes to test the effectiveness of binding and displacement of desthiobiotin with biotin. Specifically, the probe sets within the images are ligated with desthiobiotin labeled probes. […] Washing was also performed to remove the displaced biotin-SAPE conjugate. FIG. 15(C) contains an image after subsequent restraining with SAPE.

T1 sequence (P22629 25-183): as the sequence (P22629 25-183, species assumed) above

| Structure (SMILES) | intensity after SAPE staining (SAPE [1]) | binding affinity with streptavidin (streptavidin) | displacement of SAPE stain and re-staining (SAPE [2]) |
| --- | --- | --- | --- |
| O=C(O)CCCC[C@@H]1SC[C@@H]2NC(=O)N[C@@H]21 [biotin] | extremely strong | 1e+15 M⁻¹ |  |
| C[C@@H]1NC(=O)N[C@@H]1CCCCCC(=O)O [desthiobiotin] |  | 5e+13 M⁻¹ | effectively displace and remove a labeling stain from desthiobiotin |
